# Experimental data from patent US20100204151A1, “USE OF A PEPTIDE AS A THERAPEUTIC AGENT” (priority 2007, published 2010).
# Test system: drug-resistant Mycobacterium tuberculosis
# Conditions: peptide 10 micrograms per ml, seven days
substance,measurement,value
"Ac-HWAVGHL-NH2 [Acetyl-GRP (20-26), Ac-His-Trp-Ala-Val-Gly-His-Leu-NH2]",% inhibition,0.0%
